Assay results as given in patent publication US20010047099A1, “4-aminopicolinates and their use as herbicides” (priority 2000, published 2001).
Each block holds one compound with its values, some of them ahead of it.

Tests used:
[1] = tested on: field bindweed (Convolvulus arvensis); test: Range & Pasture Crop Testing (postemergence track sprayer); assay type: in vivo
Procedure: (§1) By applying the well-accepted probit analysis as described by J. Berkson in Journal of the […], 48, 565 (1953) and by D. Finney in “Probit Analysis” Cambridge University Press (1952), the above data can be used to calculate GR50 and GR80 values, which are defined as growth reduction factors that correspond to the effective dose of herbicide required to kill or control 50 percent or 80 percent, respectively, of a target plant.
(§2) Rates are calculated based upon 5 doses being applied. The high rate (X), followed by serial dilutions of 1/2×, 1/4×, 1/8× and 1/16×. Compound requirements are based upon the 187 L/ha carrier volume, specifications of the delivery system (Mandel track sprayer) and generating 24 mL of technical spray material to allow for the dilutions and overage in the sprayer. [formula]
(§3) All technical materials were formulated in 97:3 (acetone:DMSO) with 0.25% X-77. The total volume of solvent is maintained at less than 7%. An overhead Mandel track sprayer calibrated to deliver 187 L/ha was used for all treatment applications (postemergence). Picloram was included as a comparison treatment.
(§4) Solutions were applied with a mechanized track-sprayer at the following settings:
(§5) Spray height: 17 inches above top of plants
(§6) This provides an application volume of 187 L/ha.
(§7) Percent weed control (burn down) was evaluated 3 weeks after treatment. Visual control on a 0-100 linear scale was used, with 0 representing no control and 100 representing total control. Burn down ratings were taken for annual and perennial weed species.

[2] = tested on: sicklepod (Cassia obtusifolia); test: as above; assay type: in vivo; details: Table 8; salts of Compound 1; dose for 80 percent control
Procedure: as §1, §2, §3, §4, §5, §6, §7

[3] = tested on: Canada thistle (Cirsium arvense); test: as above; assay type: in vivo; details: for Post-emergent Evaluation - % control CIRAR: Table 9, rate 70 g/Ha, 3 weeks after treatment
Procedure: as §1, §2, §3, §4, §5, §6, §7

[4] = tested on: morningglory (Ipomoea hederacea); test: Preemergence herbicidal activity; assay type: in vivo; details: Table 6 (headed Post-emergent; text: preemergence), after 3 weeks
Outline: (§8)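 Pre-emergence soil spray; loam:sand 70:30, pH ~8.1. Vehicle: acetone/DMSO 97:3 stock diluted in water + 0.1% Tween 155; controls sprayed with aqueous mixture. Greenhouse 23-29° C day/22-28° C night, 15 hr photoperiod. Visual % injury vs untreated at 3 wk.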

[5] = tested on: velvetleaf (Abutilon theophrasti); test: Preemergence herbicidal activity; assay type: in vivo; details: Table 6 (headed Post-emergent; text: preemergence), after 3 weeks
Outline: as §8

[6] = tested on: pigweed (Amaranthus retroflexus); test: Preemergence herbicidal activity; assay type: in vivo; details: Table 6 (headed Post-emergent; text: preemergence), after 3 weeks
Outline: as §8

[7] = tested on: wild buckwheat (Polygonum convolvulus); test: Postemergence herbicidal activity; assay type: in vivo; details: rate 125 ppm
Outline: (§9)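 Spray rate conversion: 1 ppm ≈ 1 g/Ha. The test used greenhouse seedlings (first/second true leaf) treated with a serially diluted compound spray. Control plants received carrier only. Efficacy was taken as visual injury at 2 weeks on a 0–100% scale.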

[8] = tested on: chickweed (Stellaria media); test: Postemergence herbicidal activity; assay type: in vivo; details: rate 125 ppm
Outline: as §9

[9] = tested on: cocklebur (Xanthium strumarium); test: Postemergence herbicidal activity; assay type: in vivo; details: Table 1, rate 125 ppm, visual, after 2 weeks
Outline: as §9

[10] = tested on: White Clover (Trifolium repens); test: Range & Pasture Crop Testing (postemergence track sprayer); assay type: in vivo; details: Table 10
Procedure: as §1, §2, §3, §4, §5, §6, §7

[11] = tested on: crested wheatgrass (Agropyron cristatum) (grass crop); test: Range & Pasture Crop Testing (postemergence track sprayer); assay type: in vivo; details: Table 9, rate 70 g/Ha, 3 weeks after treatment
Procedure: as §2, §3, §4, §5, §6, §7

[12] = tested on: common ragweed (Ambrosia artemisiifolia); test: as above; assay type: in vivo; details: Table 9; rate 70 g/Ha; 3 week evaluation
Procedure: as §2, §3, §4, §5, §6, §7

[13] = tested on: broadleaf dock (Rumex obtusifolia); test: as above; assay type: in vivo; details: Table 9; rate 70 g/Ha; 3 weeks after treatment
Procedure: as §2, §3, §4, §5, §6, §7

[14] = tested on: lambsquarters (Chenopodium album); test: Postemergence herbicidal activity; assay type: in vivo; details: Table 5; rate 125 ppm
Outline: as §9

[15] = tested on: wheat (Triticum aestivum); test: Postemergence herbicidal activity, selectivity to wheat; assay type: in vivo; details: Table 5; crop (wheat); rate 125 ppm
Procedure: Seeds of the desired test plant species were planted in Grace-Sierra MetroMix® 306 planting mixture, which typically has a pH of 6.0 to 6.8 and an organic matter content of about 30 percent, in plastic pots with a surface area of 64 square centimeters. When required to ensure good germination and healthy plants, a fungicide treatment and/or other chemical or physical treatment was applied. The plants were grown for 7-21 days in a greenhouse with an approximate 15 hr photoperiod which was maintained at about 23-29° C. during the day and 22-28° C. during the night. Nutrients and water were added on a regular basis and supplemental lighting was provided with overhead metal halide 1000-Watt lamps as necessary. The plants were employed for testing when they reached the first or second true leaf stage.
A weighed amount, determined by the highest rate to be tested, of each test compound was placed in a 20 mL glass vial and was dissolved in 4 mL of a 97:3 v/v (volume/volume) mixture of acetone and dimethyl sulfoxide (DMSO) to obtain concentrated stock solutions. […] The concentrated stock solutions obtained were diluted with an aqueous mixture containing acetone, water, isopropyl alcohol, DMSO, Atplus 411F crop oil concentrate, and Triton X-155 surfactant in a 48.5:39:10:1.5:1.0:0.02 v/v ratio to obtain spray solutions of known concentration. The solutions containing the highest concentration to be tested were prepared by diluting 2 mL aliquots of the stock solution with 13 mL of the mixture and lower concentrations were prepared by serial dilution of the stock solution. Approximately 1.5 mL aliquots of each solution of known concentration were sprayed evenly onto each of the test plant pots using a DeVilbiss atomizer driven by compressed air pressure of 2 to 4 psi ([…]) to obtain thorough coverage of each plant. Control plants were sprayed in the same manner with the aqueous mixture. In this test an application rate of 1 ppm results in the application of approximately 1 g/Ha.
The treated plants and control plants were placed in a greenhouse as described above and watered by sub-irrigation to prevent wash-off of the test compounds. After 2 weeks the condition of the test plants as compared with that of the untreated plants was determined visually and scored on a scale of 0 to 100 percent where 0 corresponds to no injury and 100 corresponds to complete kill.

[16] = Table 10, clover pasture, postemergence

Compound: Nc1cc(Cl)nc(C(=O)[O-])c1Cl.[K+] [potassium salt]
Post-emergent GR80 CONAR ([1]; Table 8, salts of Compound 1, dose for 80 percent control): 36 g/Ha
Post-emergent GR80 CASOB [2]: <8.8 g/Ha
Post-emergent GR80 CIRAR ([3]; Table 8, salts of Compound 1, 3 week evaluation): 27 g/Ha

melting point: 114 to 115 °C
Compound: CC(C)OC(=O)c1nc(Cl)cc(N)c1Cl [Compound 6, i-propyl 4-amino-3,6-dichloropyridine-2-carboxylate]
pest or weed control at 280 ppm ([4]; Ipomoea, 504 h, rate 280 ppm, read-out: % Control IPOHE): 100%
pest or weed control at 280 ppm ([5]; Abutilon theophrasti, 504 h, rate 280 ppm, read-out: % Control ABUTH): 100%
pest or weed control at 280 ppm ([6]; Amaranthus retroflexus, 504 h, rate 280 ppm, read-out: % Control AMARE): 100%
pest or weed control at 125 ppm ([7]; Fallopia convolvulus, post-emergence, 336 h, Table 1, visual, after 2 weeks, read-out: Post-emergent % Control POLCO): 100%
pest or weed control at 125 ppm ([8]; Stellaria media, post-emergence, 336 h, Table 1, visual, after 2 weeks, read-out: Post-emergent % Control STEME): 100%
pest or weed control at 125 ppm ([9]; Xanthium strumarium, post-emergence, 336 h, read-out: Post-emergent % Control XANST): 100%
GR80 CONAR [1, 16]: 98.8 g/ha
GR20 TRFRE [10]: 98.8 g/ha
Post-emergent Evaluation - % control CIRAR [3]: 95%
GR80 CIRAR [3, 16]: <17.5 g/ha
Post-emergent Evaluation - % control AGRCR [11]: 30%
Post-emergent Evaluation - % control AMBEL [12]: 93%
Post-emergent Evaluation - % control RUMOB [13]: 100%

Compound: 4-Amino-3,6-dichloro-5-methylthiopyridine-2-carboxylic acid [Compound 23]
% Control IPOHE ([4]; rate 560 ppm): 0%
% Control ABUTH ([5]; rate 560 ppm): 40%
% Control AMARE ([6]; rate 560 ppm): 40%
Post-emergent Evaluation - % control CHEAL [14]: 90%
Post-emergent % Control POLCO ([7]; Table 1, visual, after 2 weeks): 98%
Post-emergent Evaluation - % control POLCO ([7]; Table 5): 98%
Post-emergent % Control STEME ([8]; Table 1, visual, after 2 weeks): 90%
Post-emergent Evaluation - % control STEME ([8]; Table 5): 30%
Post-emergent % Control XANST [9]: 90%
Post-emergent Evaluation - % control CIRAR [3]: 80%
Post-emergent Evaluation - % control TRZAS [15]: 20%
Post-emergent Evaluation - % control AGRCR [11]: 30%
Post-emergent Evaluation - % control AMBEL [12]: 85%
Post-emergent Evaluation - % control RUMOB [13]: 100%
